From ChEMBL document CHEMBL3259719, “Discovery and Optimization of Tetramethylpiperidinyl Benzamides as Inhibitors of EZH2” (ACS Med Chem Lett, 2014)

How the values were obtained:
[1] = target: T1, Histone-lysine N-methyltransferase EZH2 (Homo sapiens, UniProt Q15910); assay: Inhibition of wild type EZH2 (unknown origin)
Target sequence in this assay (Q15910 whole entry): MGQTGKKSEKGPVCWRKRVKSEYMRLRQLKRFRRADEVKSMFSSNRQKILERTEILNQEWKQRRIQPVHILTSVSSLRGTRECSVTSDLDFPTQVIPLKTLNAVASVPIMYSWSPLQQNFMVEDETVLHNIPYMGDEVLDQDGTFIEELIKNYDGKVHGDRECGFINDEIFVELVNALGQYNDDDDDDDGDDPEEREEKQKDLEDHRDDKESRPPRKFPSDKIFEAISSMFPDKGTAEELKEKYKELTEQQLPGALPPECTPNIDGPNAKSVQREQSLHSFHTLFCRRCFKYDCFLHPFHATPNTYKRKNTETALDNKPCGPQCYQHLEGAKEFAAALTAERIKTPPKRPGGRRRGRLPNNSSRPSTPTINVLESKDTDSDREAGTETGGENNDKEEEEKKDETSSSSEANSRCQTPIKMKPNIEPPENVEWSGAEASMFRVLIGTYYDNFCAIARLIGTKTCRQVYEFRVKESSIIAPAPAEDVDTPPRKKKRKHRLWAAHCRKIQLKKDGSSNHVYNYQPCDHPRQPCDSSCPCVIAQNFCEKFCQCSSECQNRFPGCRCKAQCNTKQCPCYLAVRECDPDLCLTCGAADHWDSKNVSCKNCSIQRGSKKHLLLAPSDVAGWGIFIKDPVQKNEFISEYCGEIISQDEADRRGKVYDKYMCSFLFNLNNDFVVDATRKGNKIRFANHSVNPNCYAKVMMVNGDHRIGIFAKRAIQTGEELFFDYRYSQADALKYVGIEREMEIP

[2] = Passive permeability from apical to basolateral side in human Caco2 cells; type: ADME, cell-based; details: Caco-2, read-out: permeability
[3] = target: Histone-lysine N-methyltransferase EZH2 (Homo sapiens, UniProt Q15910, Y641N); assay: Inhibition of EZH2 Y641N mutant (unknown origin)
Histone-lysine N-methyltransferase EZH2 (Homo sapiens, UniProt Q15910, Y641N), sequence (Q15910 whole entry Y641N): as the sequence (Q15910 whole entry) above, with Y641N counted along it

[4] = Passive permeability from basolateral to apical side in human Caco2 cells; type: ADME, cell-based; details: Caco-2, read-out: permeability
[5] = Efflux ratio of passive permeability in human Caco2 cells; type: ADME, cell-based; details: Caco-2
[6] = target: T1, Histone-lysine N-methyltransferase EZH2; assay: Inhibition of EZH2 in human HeLa cells assessed as reduction in H3K27me3 level; type: cell-based
Target sequence in this assay (Q15910 whole entry, looked up): as the sequence (Q15910 whole entry) above

[7] = Growth inhibition of human KARPAS422 cells after 10 days by Cell-Titer luminescence assay; type: functional; details: KARPAS-422, 240 h
[8] = Growth inhibition of human KARPAS422 cells after 14 days by Cell-Titer luminescence assay; type: functional; details: KARPAS-422, 336 h
[9] = Growth inhibition of human KARPAS422 cells after 17 days by Cell-Titer luminescence assay; type: functional; details: KARPAS-422, 408 h
[10] = Growth inhibition of human KARPAS422 cells after 7 days by Cell-Titer luminescence assay; type: functional; details: KARPAS-422, 168 h
[11] = Growth inhibition of human KARPAS422 cells after 4 days by Cell-Titer luminescence assay; type: functional; details: KARPAS-422, 96 h

IC50 [1] [µM]	Compound	further results
61	Cc1cccc(Oc2ccc(C(=O)NC3CC(C)(C)NC(C)(C)C3)cc2)c1	–
59	COc1ccccc1Oc1ccc(C(=O)NC2CC(C)(C)NC(C)(C)C2)cc1	–
3.6	CC1(C)CC(NC(=O)c2ccc(Oc3ccccc3OCc3ccccc3)cc2)CC(C)(C)N1	–
0.172	CC1(C)CC(OC(=O)c2ccc(Oc3cccc(-c4ccnnc4)c3C#N)c(Cl)c2)CC(C)(C)N1	Papp A→B [2]: 20.4 ×10⁻⁶ cm/s; IC50 [3]: 2.5 µM; Papp B→A [4]: 47.7 ×10⁻⁶ cm/s; efflux ratio [5]: 2.3
> 80	CC1(C)CC(NC(=O)c2ccc(S(=O)(=O)c3ccccc3)cc2)CC(C)(C)N1	–
> 80	CC1(C)CC(NC(=O)c2ccc(OCc3ccccc3)cc2)CC(C)(C)N1	–
> 80	CC(c1ccccc1)c1ccc(C(=O)NC2CC(C)(C)NC(C)(C)C2)cc1 (stereo unspecified)	–
> 80	CC1(C)CC(NC(=O)c2ccc(Cc3ccccc3)cc2)CC(C)(C)N1	–
0.92	Cc1cc(C(=O)NC2CC(C)(C)NC(C)(C)C2)ccc1Oc1ccccc1C#N	–
19	C#Cc1ccccc1Oc1ccc(C(=O)NC2CC(C)(C)NC(C)(C)C2)cc1	–
0.23	CC1(C)CC(NC(=O)c2ccc(Oc3cccc(-c4cn[nH]c4)c3C#N)c(Cl)c2)CC(C)(C)N1	IC50 [3]: 4 µM
> 80	CC1(C)CC(NC(=O)c2ccc([S+]([O-])c3ccccc3)cc2)CC(C)(C)N1 (stereo unspecified)	–
1.5	CC1(C)CC(NC(=O)c2ccc(Oc3cccc(-c4ccnnc4)c3C#N)c(Cl)c2)CC(C)(C)O1	Papp A→B [2]: 21.9 ×10⁻⁶ cm/s; IC50 [3]: 66 µM; Papp B→A [4]: 24.8 ×10⁻⁶ cm/s; efflux ratio [5]: 1.1
0.871	CC1CC(NC(=O)c2ccc(Oc3cccc(-c4ccnnc4)c3C#N)c(Cl)c2)CC(C)(C)N1 (stereo unspecified)	IC50 [3]: 10 µM
0.93	CC1(C)CC(NC(=O)c2ccc(Oc3ccccc3C#N)c(C#N)c2)CC(C)(C)N1	–
> 80	CC1(C)CC(NC(=O)c2ccc(Nc3ccccc3)cc2)CC(C)(C)N1	–
29	CC1(C)CC(NC(=O)c2ccc(Oc3ccccc3Cl)cc2)CC(C)(C)N1	–
> 80	CC1(C)CC(NC(=O)c2ccc(C3(c4ccccc4)CC3)cc2)CC(C)(C)N1	–
0.5	CC1(C)CC(NC(=O)c2ccc(Oc3ccccc3C#N)c(C3CC3)c2)CC(C)(C)N1	–
0.14	CC1(C)CC(NC(=O)c2ccc(Oc3cccc(Cl)c3C#N)c(Cl)c2)CC(C)(C)N1	IC50 [3]: 2.2 µM
–	CC1(C)CC(NC(=O)c2ccc(Oc3cccc(-c4ccnnc4)c3C#N)c(Cl)c2)CC(C)(C)N1	Papp A→B [2]: 0.19 ×10⁻⁶ cm/s; Activity [6]: 7 µM; GI50 [7]: 23 µM; GI50 [8]: 13.2 µM; Papp B→A [4]: 3.29 ×10⁻⁶ cm/s; GI50 [9]: 9.1 µM; GI50 [10]: 24.8 µM; GI50 [11]: 70 µM
7.9	CC1(C)CC(NC(=O)c2ccc(Oc3ccccc3C(C)(C)C)cc2)CC(C)(C)N1	–
15	CC1(C)CC(NC(=O)c2ccc(Oc3ccccc3C#N)cc2F)CC(C)(C)N1	–
48	Cc1ccccc1Oc1ccc(C(=O)NC2CC(C)(C)NC(C)(C)C2)cc1	–

IC50 [1] [µM]	Compound	further results
57	CC1(C)CC(NC(=O)c2ccc(C(=O)c3ccccc3)cc2)CC(C)(C)N1	–
4.9	CC1(C)CC(NC(=O)c2ccc(Oc3ccccc3C#N)c(Cl)c2)CC(C)(C)N1CCO	IC50 [3]: 62 µM
0.024	CC1(C)CC(NC(=O)c2ccc(Oc3cccc(-c4ccncn4)c3C#N)c(Cl)c2)CC(C)(C)N1	IC50 [3]: 0.13 µM
51	CC1(C)CC(NC(=O)c2ccc(Oc3ccccc3)cc2)CC(C)(C)N1	–
> 80	CN(c1ccccc1)c1ccc(C(=O)NC2CC(C)(C)NC(C)(C)C2)cc1	–
1	CC1(C)CC(NC(=O)c2cc(F)c(Oc3ccccc3C#N)c(Br)c2)CC(C)(C)N1	–
0.081	CC1(C)CC(NC(=O)c2ccc(Oc3cccc(-c4ccncc4)c3C#N)c(Cl)c2)CC(C)(C)N1	IC50 [3]: 0.56 µM
0.32	CC1(C)CC(NC(=O)c2ccc(Oc3ccccc3C#N)c(Br)c2)CC(C)(C)N1	–
33	CC1(C)CC(NC(=O)c2ccc(Sc3ccccc3)cc2)CC(C)(C)N1	–
> 80	CC1(C)CC(NC(=O)c2ccc(C(O)c3ccccc3)cc2)CC(C)(C)N1 (stereo unspecified)	–
> 80	COc1cc(Oc2ccccc2C#N)ccc1C(=O)NC1CC(C)(C)NC(C)(C)C1	–
48	CC1(C)CC(NC(=O)c2ccc(COc3ccccc3)cc2)CC(C)(C)N1	–
0.189	CC1(C)CC(COc2ccc(Oc3cccc(-c4ccncn4)c3C#N)c(Cl)c2)CC(C)(C)N1	Papp A→B [2]: 0.5 ×10⁻⁶ cm/s; IC50 [3]: 2 µM; Activity [6]: > 15 µM; Papp B→A [4]: 2.1 ×10⁻⁶ cm/s; efflux ratio [5]: 4.4
51	Cc1cc(C(=O)NC2CC(C)(C)NC(C)(C)C2)cc(C)c1Oc1ccccc1C#N	–
0.14	Cc1cccc(Oc2ccc(C(=O)NC3CC(C)(C)NC(C)(C)C3)cc2Cl)c1C#N	IC50 [3]: 1.4 µM
0.45	CC1(C)CC(NC(=O)c2ccc(Oc3ccccc3C#N)c(Cl)c2)CC(C)(C)N1	–
1	CC1(C)CC(NC(=O)c2ccc(Oc3ccccc3C#N)c(F)c2)CC(C)(C)N1	–
3.4	CC1(C)CC(NC(=O)c2ccc(Oc3ccccc3C#N)cc2)CC(C)(C)N1	–
> 80	Cc1ccc(Oc2ccc(C(=O)NC3CC(C)(C)NC(C)(C)C3)cc2)cc1	–
2.1	CC1CC(NC(=O)c2ccc(Oc3cccc(-c4ccnnc4)c3C#N)c(Cl)c2)CC(C)N1 (stereo unspecified)	IC50 [3]: 10 µM
> 80	CC1(C)CC(NC(=O)c2ccc(Oc3ccccc3C#N)c(Cl)c2)C(F)(F)C(C)(C)N1 (stereo unspecified)	IC50 [3]: > 80 µM
37	CC1(C)CC(NC(=O)c2ccc(Oc3ccccc3C#N)cc2Cl)CC(C)(C)N1	–
0.84	CC1(C)CC(NC(=O)c2ccc(Oc3ccccc3C#N)c3ccccc23)CC(C)(C)N1	–
